Measured values: patent US10934302B1, “SHP2 phosphatase inhibitors and methods of use thereof” (Relay Therapeutics, Inc., priority 2018, dated 2021)
pIC50: −log10 of the molar value.

Each compound was assayed against SHP2 (Homo sapiens (Human), UniProt Q06124) (assay: SHP2 allosteric inhibition assay (DiFMUP prompt fluorescence)). Details: 0.25 nM SHP2 activated with 0.5 μM peptide IRS1_pY1172(dPEG8)pY1222; substrate DiFMUP.
Format: biochemical

Structure (SMILES) | pIC50
CN(c1ccnc(N)c1)c1n[nH]c2nc(N3CCC4(CC3)Cc3ccccc3[C@H]4N)cnc12 [Example 148, (S)—N4-(6-(1-amino-1,3-dihydrospiro[indene-2,4′-piperidin]-1′-yl)-1H-pyrazolo[3,4-b]pyrazin-3-yl)-N4-methylpyridine-2,4-diamine] | ≥ 7.30
Cc1nc2c(N3CCCc4nc(-c5cnn(C)c5)ccc43)n[nH]c2nc1N1CCC2(CC1)Cc1ccccc1[C@H]2N [Example 149, (3S)-1′-{5-methyl-3-[6-(1-methyl-1H-pyrazol-4-yl)-1,2,3,4-tetrahydro-1,5-naphthyridin-1-yl]-1H-pyrazolo[3,4-b]pyrazin-6-yl}-1,3-dihydrospiro[indene-2,4′-piperidin]-3-amine] | ≥ 7.30
Cc1nc2c(N3CCCCC3)n[nH]c2nc1N1CCC2(CC1)Cc1ccccc1[C@H]2N [Example 152, (3S)-1′-[5-methyl-3-(piperidin-1-yl)-1H-pyrazolo[3,4-b]pyrazin-6-yl]-1,3-dihydrospiro[indene-2,4′-piperidin]-3-amine] | ≥ 7.30
N#Cc1n[nH]c2nc(N3CCC4(CC3)Cc3ccccc3[C@H]4N)c(CO)nc12 [Example 154, 6-[(3S)-3-amino-1,3-dihydrospiro[indene-2,4′-piperidin]-1′-yl]-5-(hydroxymethyl)-1H-pyrazolo[3,4-b]pyrazine-3-carbonitrile] | ≥ 7.30
CNC(=O)c1n[nH]c2nc(N3CCC4(CC3)Cc3ccccc3[C@H]4N)c(CO)nc12 [Example 155, 6-[(3S)-3-amino-1,3-dihydrospiro[indene-2,4′-piperidin]-1′-yl]-5-(hydroxymethyl)-N-methyl-1H-pyrazolo[3,4-b]pyrazine-3-carboxamide] | ≥ 7.30
COc1n[nH]c2nc(N3CCC4(CC3)Cc3ccccc3[C@H]4N)c(CO)nc12 [Example 158, {6-[(3S)-3-amino-1,3-dihydrospiro[indene-2,4′-piperidin]-1′-yl]-3-methoxy-1H-pyrazolo[3,4-b]pyrazin-5-yl}methanol] | ≥ 7.30
Cc1nc2c(N3CCOCC3)n[nH]c2nc1N1CCC2(CC1)Cc1ccccc1[C@H]2N [Example 160, (3S)-1′-[5-methyl-3-(morpholin-4-yl)-1H-pyrazolo[3,4-b]pyrazin-6-yl]-1,3-dihydrospiro[indene-2,4′-piperidin]-3-amine] | ≥ 7.30
Cc1nc2c(N3CCCCC3)n[nH]c2nc1N1CCC2(CC1)Oc1ccccc1[C@H]2N [Example 162, (3R)-1′-[5-methyl-3-(piperidin-1-yl)-1H-pyrazolo[3,4-b]pyrazin-6-yl]-3H-spiro[1-benzofuran-2,4′-piperidin]-3-amine] | < 5.00

The remaining lines, values ahead:

pIC50 | Structure (SMILES)
≥ 7.30 | N[C@@H]1c2ccccc2CC12CCN(c1cnc(Sc3cccc(Cl)c3Cl)cn1)CC2 [Example 147, (S)-1′-(5-((2,3-dichlorophenyl)thio)pyrazin-2-yl)-1,3-dihydrospiro[indene-2,4′-piperidin]-1-amine]
≥ 7.30 | N#CCc1n[nH]c2nc(N3CCC4(CC3)Cc3ccccc3[C@H]4N)c(CO)nc12 [Example 153, 2-{6-[(3S)-3-amino-1,3-dihydrospiro[indene-2,4′-piperidin]-1′-yl]-5-(hydroxymethyl)-1H-pyrazolo[3,4-b]pyrazin-3-yl}acetonitrile]
≥ 7.30 | Cc1n[nH]c2nc(N3CCC4(CC3)Cc3ccccc3[C@H]4N)c(CO)nc12 [Example 156, {6-[(3S)-3-amino-1,3-dihydrospiro[indene-2,4′-piperidin]-1′-yl]-3-methyl-1H-pyrazolo[3,4-b]pyrazin-5-yl}methanol]
≥ 7.30 | N[C@@H]1c2ccccc2CC12CCN(c1cnc(Cc3ccnc(Cl)c3Cl)cn1)CC2 [Example 157, (3S)-1′-{5-[(2,3-dichloropyridin-4-YL)methyl]pyrazin-2-yl}-1,3-dihydrospiro[indene-2,4′-piperidin]-3-amine]
≥ 7.30 | N[C@@H]1c2ccccc2OC12CCN(c1nc3[nH]ncc3nc1CO)CC2 [Example 159, {6-[(3R)-3-amino-3H-spiro[1-benzofuran-2,4′-piperidin]-1′-yl]-1H-pyrazolo[3,4-b]pyrazin-5-yl}methanol]
